Source: patent US20240239792A1, “MODULATORS OF BCL-2 OR BCL-2/BCL-XL AND USES THEREOF” (APPICINE THERAPEUTICS (HK) LIMITED, priority 2021, published 2024)
pIC50: −log10 of the molar value.

Tests used:
DOHH2 cells = test: CellTiter-Glo cell proliferation assay, DOHH2 cells; type: cell-based; settings: Homo sapiens, DOHH-2, 72 hours
Summary of the method: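 DOHH2 cells seeded in DMEM + 10% FBS, exposed to serially diluted compound for 72 h at 37 °C, 5% CO2. Viability read by CellTiter-Glo luminescence; GI50 calculated.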

CYP2C9 = target: T1, CYP2C9 (Homo sapiens, UniProt P11712); test: CYP2C9 activity assay in human liver microsomes, substrate diclofenac; type: in vitro ADME; settings: probe diclofenac, test compound 1 μM, 37° C. 10 min, read-out: Inhibition rate (%) against CYP2C9 Enzyme
T1 construct: from tissue; host or cells: human liver microsomes
Description: In this assay, several exemplary compounds of the present disclosure and a control compound (Venetoclax) were used as the test compounds. In general, the assay was conducted by the following steps: • 1. The solution of test compound, human liver microsomes solution, and substrate (diclofenac) solution were mixed in a 96-well assay plate on ice to, and the final concentration of each test compound is 1 μM; • 2. The 96-well assay plate and NADPH solution were pre-incubated at 37° C. for 5 minutes; • 3. NADPH solution was added to into the assay plates to initiate the reaction; • 4. The assay plate was incubated at 37° C. for 10 min; • 5. The reaction was stopped; and after quenching, a portion of the supernatant was taken from each well for LC/MS analysis; • 6. The inhibition rate was calculated by the following equation: Inhibition rate (%)=(1−Valuetest/Valuecontrol)×100%, where Valuetest refers to the LC/MS data obtained from wells with test compounds and Valuecontrol refers to the LC/MS data obtained from wells without test compound.

BCL-2 = target: T2, BCL-2 (Homo sapiens, UniProt P10415); test: HTRF BCL-2/BAK assay (Cisbio); type: binding; settings: recombinant human Tag1-BCL-2 2 nM, Tag2-BAK 10 nM
T2 construct: purchased Cisbio 63ADK000CB01PEG
Description: (§1) Then the pre-mixed anti-Tag1-Eu^3+ and anti-tag2-XL665 were added to the plate and further incubated at room temperature for another 2 hours. The signals ([…]) were read on Envision 2104 instrument. The IC50 for each compound was derived from fitting the signal of 665/615 nM to the increasing compound concentration.
(§2) Using the above assays, the following compounds were tested.

BCL-XL = target: T3, BCL-XL (Homo sapiens, UniProt Q07817); test: HTRF BCL-XL/BAK assay (Cisbio); type: binding; settings: recombinant human Tag1-BCL-XL 2 nM, Tag2-BAK 5 nM
T3 construct: purchased Cisbio 63ADK000CB04PEG
Description: as §1, §2

T2 sequence (P10415 whole entry): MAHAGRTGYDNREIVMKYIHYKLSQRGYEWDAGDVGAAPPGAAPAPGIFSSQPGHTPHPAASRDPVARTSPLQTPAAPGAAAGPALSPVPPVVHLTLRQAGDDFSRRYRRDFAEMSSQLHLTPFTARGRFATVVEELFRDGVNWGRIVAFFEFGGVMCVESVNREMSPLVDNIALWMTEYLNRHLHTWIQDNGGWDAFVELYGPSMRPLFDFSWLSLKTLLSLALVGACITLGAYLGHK
T3 sequence (Q07817 whole entry): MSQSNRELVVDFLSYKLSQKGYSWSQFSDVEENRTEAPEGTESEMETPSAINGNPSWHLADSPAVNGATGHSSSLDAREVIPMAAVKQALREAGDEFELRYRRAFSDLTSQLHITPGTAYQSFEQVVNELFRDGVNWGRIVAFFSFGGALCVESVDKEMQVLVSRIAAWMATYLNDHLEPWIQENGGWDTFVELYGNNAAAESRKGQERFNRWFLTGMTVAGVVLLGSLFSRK
T1 sequence (P11712 whole entry): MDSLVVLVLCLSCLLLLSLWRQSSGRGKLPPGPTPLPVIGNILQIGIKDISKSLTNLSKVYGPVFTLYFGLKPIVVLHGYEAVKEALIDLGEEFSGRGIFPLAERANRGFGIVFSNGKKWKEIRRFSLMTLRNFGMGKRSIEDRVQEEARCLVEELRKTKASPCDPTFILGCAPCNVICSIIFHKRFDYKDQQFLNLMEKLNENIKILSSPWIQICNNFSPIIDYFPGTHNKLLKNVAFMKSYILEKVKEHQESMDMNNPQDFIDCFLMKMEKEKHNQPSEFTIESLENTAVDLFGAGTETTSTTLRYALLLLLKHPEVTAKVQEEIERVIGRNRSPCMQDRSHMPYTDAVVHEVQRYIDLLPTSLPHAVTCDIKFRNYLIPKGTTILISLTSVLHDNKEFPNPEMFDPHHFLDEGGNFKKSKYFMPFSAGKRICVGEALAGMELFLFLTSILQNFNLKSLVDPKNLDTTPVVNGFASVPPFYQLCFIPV

O=C(NS(=O)(=O)c1ccc(NCC2CCOCC2)c([N+](=O)[O-])c1)c1ccc(N2CCC3(CC2)CN(C2CCCc4ccccc42)C3)cc1Oc1cnc2[nH]ccc2c1 (centres unmarked) [Compound 94, 2-((1H-pyrrolo[2,3-b]pyridin-5-yl)oxy)-N-((3-nitro-4-(((tetrahydro-2H-pyran-4-yl)methyl)amino)phenyl)sulfonyl)-4-(2-(1,2,3,4-tetrahydronaphthalen-1-yl)-2,7-diazaspiro[3.5]nonan-7-yl)benzamide]
GI50 (DOHH2 cells): 0.5 to 5 µM
inhibition at 10 min, 1 µM (CYP2C9): < 30%
pIC50 (BCL-2): > 7.70

CC(C)(C)OC(=O)N1CCC2(CC1)CC(CNc1ccc(S(=O)(=O)NC(=O)c3ccc(N4CCN([C@@H]5CCCCc6c(Cl)cccc65)CC4)cc3Oc3cnc4[nH]ccc4c3)cc1[N+](=O)[O-])C2 [Compound 100, tert-butyl (R)-2-(((4-(N-(2-((1H-pyrrolo[2,3-b]pyridin-5-yl)oxy)-4-(4-(1-chloro-6,7,8,9-tetrahydro-5H-benzo[7]annulen-5-yl)piperazin-1-yl)benzoyl)sulfamoyl)-2-nitrophenyl)amino)methyl)-7-azaspiro[3.5]nonane-7-carboxylate]
GI50 (DOHH2 cells): 0.05 to 0.5 µM
pIC50 (BCL-XL): 5.70 to 6.70
inhibition at 10 min, 1 µM (CYP2C9): < 30%
pIC50 (BCL-2): > 7.70

CC(=O)N1CCC2(CC1)CC(CNc1ccc(S(=O)(=O)NC(=O)c3ccc(N4CCN([C@@H]5CCCCc6c(Cl)cccc65)CC4)cc3Oc3cnc4[nH]ccc4c3)cc1[N+](=O)[O-])C2 [Compound 111, (R)-2-((1H-pyrrolo[2,3-b]pyridin-5-yl)oxy)-N-((4-(((7-acetyl-7-azaspiro[3.5]nonan-2-yl)methyl)amino)-3-nitrophenyl)sulfonyl)-4-(4-(1-chloro-6,7,8,9-tetrahydro-5H-benzo[7]annulen-5-yl)piperazin-1-yl)benzamide]
GI50 (DOHH2 cells): < 0.05 µM
pIC50 (BCL-XL): 6.70 to 7.70
pIC50 (BCL-2): > 7.70

O=C(NS(=O)(=O)c1ccc(NCC2CC3(CCNCC3)C2)c([N+](=O)[O-])c1)c1ccc(N2CCN([C@@H]3CCCCc4c(Cl)cccc43)CC2)cc1 [Compound 117, (R)-N-((4-(((7-azaspiro[3.5]nonan-2-yl)methyl)amino)-3-nitrophenyl)sulfonyl)-4-(4-(1-chloro-6,7,8,9-tetrahydro-5H-benzo[7]annulen-5-yl)piperazin-1-yl)benzamide]
GI50 (DOHH2 cells): > 5 µM
pIC50 (BCL-XL): 6.70 to 7.70
pIC50 (BCL-2): 6.70 to 7.70

CC(C)(C)OC(=O)NCCN1CCC2(CC1)CC(CNc1ccc(S(=O)(=O)NC(=O)c3ccc(N4CCN([C@@H]5CCCCc6c(Cl)cccc65)CC4)cc3)cc1[N+](=O)[O-])C2 [Compound 119, tert-butyl (R)-(2-(2-(((4-(N-(4-(4-(1-chloro-6,7,8,9-tetrahydro-5H-benzo[7]annulen-5-yl)piperazin-1-yl)benzoyl)sulfamoyl)-2-nitrophenyl)amino)methyl)-7-azaspiro[3.5]nonan-7-yl)ethyl)carbamate]
GI50 (DOHH2 cells): 0.05 to 0.5 µM
pIC50 (BCL-XL): 5.70 to 6.70
pIC50 (BCL-2): 6.70 to 7.70

NCCN1CCC2(CC1)CC(CNc1ccc(S(=O)(=O)NC(=O)c3ccc(N4CCN([C@@H]5CCCCc6c(Cl)cccc65)CC4)cc3)cc1[N+](=O)[O-])C2 [Compound 120, (R)-N-((4-(((7-(2-aminoethyl)-7-azaspiro[3.5]nonan-2-yl)methyl)amino)-3-nitrophenyl)sulfonyl)-4-(4-(1-chloro-6,7,8,9-tetrahydro-5H-benzo[7]annulen-5-yl)piperazin-1-yl)benzamide]
GI50 (DOHH2 cells): 0.5 to 5 µM
pIC50 (BCL-XL): 6.70 to 7.70
pIC50 (BCL-2): 6.70 to 7.70

O=C(NS(=O)(=O)c1ccc(NCC2CC3(CCN(CCO)CC3)C2)c([N+](=O)[O-])c1)c1ccc(N2CCN([C@@H]3CCCCc4c(Cl)cccc43)CC2)cc1Oc1cnc2[nH]ccc2c1 [Compound 121, (R)-2-((1H-pyrrolo[2,3-b]pyridin-5-yl)oxy)-4-(4-(1-chloro-6,7,8,9-tetrahydro-5H-benzo[7]annulen-5-yl)piperazin-1-yl)-N-((4-(((7-(2-hydroxyethyl)-7-azaspiro[3.5]nonan-2-yl)methyl)amino)-3-nitrophenyl)sulfonyl)benzamide]
GI50 (DOHH2 cells): < 0.05 µM
pIC50 (BCL-XL): > 7.70
pIC50 (BCL-2): > 7.70

CCOC(=O)CN1CCC2(CC1)CC(CNc1ccc(S(=O)(=O)NC(=O)c3ccc(N4CCN([C@@H]5CCCCc6c(Cl)cccc65)CC4)cc3Oc3cnc4[nH]ccc4c3)cc1[N+](=O)[O-])C2 [Compound 122, ethyl (R)-2-(2-(((4-(N-(2-((1H-pyrrolo[2,3-b]pyridin-5-yl)oxy)-4-(4-(1-chloro-6,7,8,9-tetrahydro-5H-benzo[7]annulen-5-yl)piperazin-1-yl)benzoyl)sulfamoyl)-2-nitrophenyl)amino)methyl)-7-azaspiro[3.5]nonan-7-yl)acetate]
GI50 (DOHH2 cells): < 0.05 µM
pIC50 (BCL-XL): 6.70 to 7.70
pIC50 (BCL-2): > 7.70

O=C(O)CN1CCC2(CC1)CC(CNc1ccc(S(=O)(=O)NC(=O)c3ccc(N4CCN([C@@H]5CCCCc6c(Cl)cccc65)CC4)cc3Oc3cnc4[nH]ccc4c3)cc1[N+](=O)[O-])C2 [Compound 123, (R)-2-(2-(((4-(N-(2-((1H-pyrrolo[2,3-b]pyridin-5-yl)oxy)-4-(4-(1-chloro-6,7,8,9-tetrahydro-5H-benzo[7]annulen-5-yl)piperazin-1-yl)benzoyl)sulfamoyl)-2-nitrophenyl)amino)methyl)-7-azaspiro[3.5]nonan-7-yl)acetic acid]
GI50 (DOHH2 cells): 0.05 to 0.5 µM
pIC50 (BCL-XL): > 7.70
pIC50 (BCL-2): > 7.70

CC(C)C(=O)N1CCC2(CC1)CC(CNc1ccc(S(=O)(=O)NC(=O)c3ccc(N4CCN([C@@H]5CCCCc6c(Cl)cccc65)CC4)cc3Oc3cnc4[nH]ccc4c3)cc1[N+](=O)[O-])C2 [Compound 124, (R)-2-((1H-pyrrolo[2,3-b]pyridin-5-yl)oxy)-4-(4-(1-chloro-6,7,8,9-tetrahydro-5H-benzo[7]annulen-5-yl)piperazin-1-yl)-N-((4-(((7-isobutyryl-7-azaspiro[3.5]nonan-2-yl)methyl)amino)-3-nitrophenyl)sulfonyl)benzamide]
GI50 (DOHH2 cells): < 0.05 µM
pIC50 (BCL-XL): 6.70 to 7.70
pIC50 (BCL-2): > 7.70

CC(C)[C@H](N)C(=O)N1CCC2(CC1)CC(CNc1ccc(S(=O)(=O)NC(=O)c3ccc(N4CCN([C@@H]5CCCCc6c(Cl)cccc65)CC4)cc3Oc3cnc4[nH]ccc4c3)cc1[N+](=O)[O-])C2 [Compound 125, 2-((1H-pyrrolo[2,3-b]pyridin-5-yl)oxy)-N-((4-(((7-(L-valyl)-7-azaspiro[3.5]nonan-2-yl)methyl)amino)-3-nitrophenyl)sulfonyl)-4-(4-((R)-1-chloro-6,7,8,9-tetrahydro-5H-benzo[7]annulen-5-yl)piperazin-1-yl)benzamide]
GI50 (DOHH2 cells): < 0.05 µM
pIC50 (BCL-XL): > 7.70
pIC50 (BCL-2): > 7.70

O=C(NS(=O)(=O)c1ccc(NCC2CC3(CCN(CC4CC4)CC3)C2)c([N+](=O)[O-])c1)c1ccc(N2CCN([C@@H]3CCCCc4c(Cl)cccc43)CC2)cc1Oc1cnc2[nH]ccc2c1 [Compound 129, (R)-2-((1H-pyrrolo[2,3-b]pyridin-5-yl)oxy)-4-(4-(1-chloro-6,7,8,9-tetrahydro-5H-benzo[7]annulen-5-yl)piperazin-1-yl)-N-((4-(((7-(cyclopropylmethyl)-7-azaspiro[3.5]nonan-2-yl)methyl)amino)-3-nitrophenyl)sulfonyl)benzamide]
GI50 (DOHH2 cells): < 0.05 µM
pIC50 (BCL-XL): > 7.70
pIC50 (BCL-2): > 7.70

CCOC(=O)CCN1CCC2(CC1)CC(CNc1ccc(S(=O)(=O)NC(=O)c3ccc(N4CCN([C@@H]5CCCCc6c(Cl)cccc65)CC4)cc3Oc3cnc4[nH]ccc4c3)cc1[N+](=O)[O-])C2 [Compound 130, ethyl (R)-3-(2-(((4-(N-(2-((1H-pyrrolo[2,3-b]pyridin-5-yl)oxy)-4-(4-(1-chloro-6,7,8,9-tetrahydro-5H-benzo[7]annulen-5-yl)piperazin-1-yl)benzoyl)sulfamoyl)-2-nitrophenyl)amino)methyl)-7-azaspiro[3.5]nonan-7-yl)propanoate]
GI50 (DOHH2 cells): < 0.05 µM
pIC50 (BCL-XL): > 7.70
pIC50 (BCL-2): > 7.70

CCN1CCC2(CC1)CC(CNc1ccc(S(=O)(=O)NC(=O)c3ccc(N4CCN([C@@H]5CCCCc6c(Cl)cccc65)CC4)cc3Oc3cnc4[nH]ccc4c3)cc1[N+](=O)[O-])C2 [Compound 131, (R)-2-((1H-pyrrolo[2,3-b]pyridin-5-yl)oxy)-4-(4-(1-chloro-6,7,8,9-tetrahydro-5H-benzo[7]annulen-5-yl)piperazin-1-yl)-N-((4-(((7-ethyl-7-azaspiro[3.5]nonan-2-yl)methyl)amino)-3-nitrophenyl)sulfonyl)benzamide]
GI50 (DOHH2 cells): < 0.05 µM
pIC50 (BCL-XL): > 7.70
pIC50 (BCL-2): > 7.70

CC1(C)CCC(CN2CCN(c3ccc(C(=O)NS(=O)(=O)c4ccc(NCC5CCOCC5)c([N+](=O)[O-])c4)c(Oc4cnc5[nH]ccc5c4)c3)CC2)=C(c2ccc(Cl)cc2)C1 [Venetoclax, reference compound]
inhibition at 10 min, 1 µM (CYP2C9): 49%
